# Experimental data published in patent US8247211B2, “Glycopeptide antibiotics” (American Cyanamid Company, priority 2001, dated 2012).
# Legend:
# [1] = system: Streptococcus sp.; assay: In vitro antibacterial evaluation: minimum inhibitory concentration (MIC), broth dilution method; format: cell-based; settings: broth dilution, 18 hours at 35° C.
# Outline: (§1)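 NCCLS M7-A2 broth dilution with Mueller-Hinton II, testing 64-0.06 μg/mL antibiotic against 5×10^5 CFU/mL inocula. Test strains include recent methicillin-, penicillin- or vancomycin-resistant clinical isolates. MIC is the lowest concentration preventing growth.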
# [2] = system: Escherichia coli; assay: as above; format: cell-based; settings: 5×10^5 CFU/mL, 18 hours at 35° C.
# Outline: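 First, organisms are seeded at 5×10^5 CFU/mL into Muller-Hinton II […]. Next, antibiotic is applied across 64-0.06 μg/mL by broth dilution (NCCLS M7-A2). Finally, the lowest inhibitory concentration is recorded as MIC.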
# [3] = system: Enterococcus sp.; assay: as above; format: cell-based; settings: broth dilution, 18 hours at 35° C.
# Outline: as §1
# [4] = system: Staphylococcus sp.; assay: as above; format: cell-based; settings: for MIC Staphylococcus aureus (ATCC 29213): strain ATCC 29213; for MIC Staphylococcus aureus (GC 1131): strain GC 1131; for MIC Staphylococcus aureus (GC 3051): strain GC 3051; for MIC Staphylococcus aureus (GC 3053): strain GC 3053; for MIC Staphylococcus aureus (GC 4541): strain GC 4541; for MIC Staphylococcus aureus (GC 4545): strain GC 4545; for MIC Staphylococcus haemolyticus (GC 4546): strain GC 4546; for MIC Coagulase Negative Staphylococcus (GC 4547): strain GC 4547; for MIC Coagulase Negative Staphylococcus (GC 6257): strain GC 6257
# Outline: as §1
# [5] = system: Streptococcus pneumoniae (GC 1894), penicillin resistant strain; assay: Acute lethal infection in mice (ED50); format: in vivo; settings: female CD-1 mice, intraperitoneal challenge, intravenous dose 30 min. after infection, 7 day survival ratios
# Outline: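 Median effective dose is calculated from 7-day survival ratios pooled across three separate tests. Mice (female CD-1) receive an intraperitoneal bacterial challenge in broth or hog gastric mucin, then intravenous drug 30 min later, five animals per dose level.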
# [6] = Anatomic pathology (heart and kidney histopathology) in mice; format: in vivo, CD-1 mice; settings: 20 mg/kg intravenously daily for 9 days, microscopic histopathology on day 10
# Outline: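 Juvenile CD-1 mice (20 days old; 5 vehicle, 5 treated) received glycopeptide antibiotic 20 mg/kg i.v. daily for 9 days. Necropsied tissues formalin-fixed, paraffin-embedded, H&E stained and examined microscopically; findings graded slight to severe versus controls.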
# [7] = broth dilution, 18 hours at 35° C.
structure (smiles),measurement,setting,value
"N=C1NCC(C(O)C2NC(=O)C(Cc3ccc(OC4OC(CO)C(OC5OC6COC7(OC6C(O)C5O)C5CC6CC(C5)CC7C6)C(O)C4O)cc3)NC(=O)C(CC3CCCCC3)NC(=O)CNC(=O)C(CO)NC(=O)C(C(O)C3CNC(=N)N3C3OC(CO)C(O)C(O)C3O)NC2=O)N1 (stereo not drawn) [Example 106, Cyclo[3-cyclohexylalanyl-O-[4-O-[4,6-O-(2-adamantylidene)hexopyranosyl]hexopyranosyl]-tyrosyl-3-(2-iminoimidazolidin-4-yl)seryl-3-(3-hexopyranosyl-2-iminoimidazolidin-4-yl)-serylserylglycyl]]",MIC Streptococcus agalactiae (GC 4564),[1]; Streptococcus agalactiae (GC 4564),<0.03 µg/mL
same,MIC Streptococcus pneumoniae (ATCC 6301),[1]; Streptococcus pneumoniae (ATCC 6301),<0.03 µg/mL
same,MIC Streptococcus pneumoniae (GC 1894),[1]; Streptococcus pneumoniae (GC 1894),<0.03 µg/mL
same,MIC Streptococcus pneumoniae (GC 4565),[1]; Streptococcus pneumoniae (GC 4565),<0.03 µg/mL
same,MIC Streptococcus pyogenes (GC 4563),[1]; Streptococcus pyogenes (GC 4563),<0.03 µg/mL
same,MIC Streptococcus agalactiae (GC 4564),[1]; 5×10^5 CFU/mL,<0.03 µg/mL
same,MIC Streptococcus pneumoniae (GC 1894),[1]; 5×10^5 CFU/mL,<0.03 µg/mL
same,MIC Streptococcus pneumoniae (GC 4565),[1]; 5×10^5 CFU/mL,<0.03 µg/mL
same,MIC Streptococcus pneumonine (ATCC 6301),[1]; 5×10^5 CFU/mL,<0.03 µg/mL
same,MIC Streptococcus pyogenes (GC 4563),[1]; 5×10^5 CFU/mL,<0.03 µg/mL
same,MIC Escherichia coli (ATCC 25922),[2],32 to 64 µg/mL
same,MIC Escherichia coli (GC 4559),[2],32 to 64 µg/mL
same,MIC Escherichia coli (GC 4560),[2],0.5 to 2 µg/mL
same,MIC Enterococcus avium (GC 4558),[3]; Enterococcus avium (GC 4558),1 to 2 µg/mL
same,MIC Enterococcus faecalis (ATCC 29212),[3]; Enterococcus faecalis (ATCC 29212),0.5 to 2 µg/mL
same,MIC Enterococcus faecalis (GC 2242),[3]; Enterococcus faecalis (GC 2242),0.5 to 2 µg/mL
same,MIC Enterococcus faecalis (GC 2691),[3]; Enterococcus faecalis (GC 2691),1 to 2 µg/mL
same,MIC Enterococcus faecalis (GC 3059),[3]; Enterococcus faecalis (GC 3059),1 to 2 µg/mL
same,MIC Enterococcus faecalis (GC 4552),[3]; Enterococcus faecalis (GC 4552),1 to 2 µg/mL
same,MIC Enterococcus faecalis (GC 4553),[3]; Enterococcus faecalis (GC 4553),1 to 2 µg/mL
same,MIC Enterococcus faecalis (GC 4554),[3]; Enterococcus faecalis (GC 4554),1 to 2 µg/mL
same,MIC Enterococcus faecalis (GC 6189),[3]; Enterococcus faecalis (GC 6189),1 to 2 µg/mL
same,MIC Enterococcus faecium (GC 2243),[3]; Enterococcus faecium (GC 2243),0.5 to 2 µg/mL
same,MIC Enterococcus faecium (GC 4556),[3]; Enterococcus faecium (GC 4556),0.5 to 2 µg/mL
same,MIC Enterococcus faecium (GC 4557),[3]; Enterococcus faecium (GC 4557),0.5 to 2 µg/mL
same,MIC Enterococccus avium (GC 4558),[3]; 5×10^5 CFU/mL,1 to 2 µg/mL
same,MIC Enterococccus faecalis (ATCC 29212),[3]; 5×10^5 CFU/mL,0.5 to 2 µg/mL
same,MIC Enterococccus faecalis (GC 2691),[3]; 5×10^5 CFU/mL,1 to 2 µg/mL
same,MIC Enterococccus faecalis (GC 3059),[3]; 5×10^5 CFU/mL,1 to 2 µg/mL
same,MIC Enterococccus faecalis (GC 4552),[3]; 5×10^5 CFU/mL,1 to 2 µg/mL
same,MIC Enterococccus faecalis (GC 4553),[3]; 5×10^5 CFU/mL,1 to 2 µg/mL
same,MIC Enterococccus faecalis (GC 4554),[3]; 5×10^5 CFU/mL,1 to 2 µg/mL
same,MIC Enterococccus faecalis (GC 6189),[3]; 5×10^5 CFU/mL,1 to 2 µg/mL
same,MIC Enterococccus faecium (GC 2243),[3]; 5×10^5 CFU/mL,0.5 to 2 µg/mL
same,MIC Enterococccus faecium (GC 4556),[3]; 5×10^5 CFU/mL,0.5 to 2 µg/mL
same,MIC Enterococccus faecium (GC 4557),[3]; 5×10^5 CFU/mL,0.5 to 2 µg/mL
same,MIC Enterococcus faecalis (GC 2242),[3]; 5×10^5 CFU/mL,0.5 to 2 µg/mL
same,MIC Staphylococcus aureus (ATCC 29213),[4],0.5 to 2 µg/mL
same,MIC Staphylococcus aureus (ATCC 29213),[4]; [7],0.5 to 2 µg/mL
same,MIC Staphylococcus aureus (GC 1131),[4],0.5 to 2 µg/mL
same,MIC Staphylococcus aureus (GC 1131),[4]; [7],0.5 to 2 µg/mL
same,MIC Staphylococcus aureus (GC 3051),[4],0.5 to 2 µg/mL
same,MIC Staphylococcus aureus (GC 3051),[4]; [7],0.5 to 2 µg/mL
same,MIC Staphylococcus aureus (GC 3053),[4],0.5 to 2 µg/mL
same,MIC Staphylococcus aureus (GC 3053),[4]; [7],0.5 to 2 µg/mL
same,MIC Staphylococcus aureus (GC 4541),[4],0.5 to 2 µg/mL
same,MIC Staphylococcus aureus (GC 4541),[4]; [7],0.5 to 2 µg/mL
same,MIC Staphylococcus aureus (GC 4545),[4],0.5 to 2 µg/mL
same,MIC Staphylococcus aureus (GC 4545),[4]; [7],0.5 to 2 µg/mL
same,MIC Staphylococcus haemolyticus (GC 4546),[4],0.5 to 1 µg/mL
same,MIC Staphylococcus haemolyticus (GC 4546),[4]; [7],0.5 to 1 µg/mL
same,MIC Coagulase Negative Staphylococcus (GC 4547),[4],0.5 to 2 µg/mL
same,MIC Coagulase Negative Staphylococcus (GC 4547),[4]; [7],0.5 to 2 µg/mL
same,MIC Coagulase Negative Staphylococcus (GC 6257),[4],0.25 µg/mL
same,MIC Coagulase Negative Staphylococcus (GC 6257),[4]; [7],0.25 µg/mL
same,"median effective dose (ED50), Streptococcus pneumoniae (GC 1894)",[5],0.07 mg/kg
same,"Anatomical Pathology (Day 10), Heart",[6],0
